Test results taken from patent US11066414B2, “Cot modulators and methods of use thereof” (Gilead Sciences, Inc., priority 2015, dated 2021).
Read-outs that look alike come from different tables or passages of the source.

Experiments:
[1] = molecular target: Human Cot (Homo sapiens (Human), UniProt P41279); assay: High Throughput Cot Biochemical Assay
[2] = system: TNFα; assay: Cot Monocyte TNFα Cell Based Assay
[3] = IC50 HTRF, Cot HTRF (TR-FRET) biochemical assay
[4] = Homo sapiens, Monocyte, read-out: EC50 TNF, LPS-stimulated human monocytes, TNFα
[5] = read-out: IC50 HTRF, Cot HTRF (TR-FRET KinEASE) biochemical assay, 400 μM ATP
[6] = read-out: EC50 TNF, LPS-stimulated human monocytes, TNFα TR-FRET
[7] = IC50 HTRF, Cot HTRF (TR-FRET KinEASE) biochemical assay, 400 μM ATP
[8] = Homo sapiens, Monocyte, read-out: EC50 TNF, LPS-stimulated human monocytes, TNFα TR-FRET

Sequence of Human Cot (P41279 30-397): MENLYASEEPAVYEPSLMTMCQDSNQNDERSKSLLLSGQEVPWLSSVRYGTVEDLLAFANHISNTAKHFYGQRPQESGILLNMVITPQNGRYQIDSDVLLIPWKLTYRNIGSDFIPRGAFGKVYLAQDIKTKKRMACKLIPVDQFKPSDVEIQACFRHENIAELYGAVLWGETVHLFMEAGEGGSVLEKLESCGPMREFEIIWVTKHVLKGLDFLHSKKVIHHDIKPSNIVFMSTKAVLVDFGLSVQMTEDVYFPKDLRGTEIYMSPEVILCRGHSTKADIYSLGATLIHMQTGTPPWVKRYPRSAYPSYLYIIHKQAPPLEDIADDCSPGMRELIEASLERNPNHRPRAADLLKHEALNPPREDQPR

Structure (SMILES) | IC50 [1, 3] | EC50 [2, 4] | further results
COc1nccc2c([C@H](Nc3cc(C#N)c4ncc(C#N)c(NCC(C)(C)C)c4c3)c3cn([C@@H](C)CF)nn3)cccc12 [Example 824, 6-(((S)-(1-((S)-1-fluoropropan-2-yl)-1H-1,2,3-triazol-4-yl)(1-methoxylsoquinolin-5-yl)methyl)amino)-4-(neopentylamino)quinoline-3,8-dicarbonitrile] |  |  | IC50 [1, 5]: 5 nM; EC50 [2, 6]: 59 nM
CC(C)(C)CNc1c(C#N)cnc2c(C#N)cc(N[C@H](c3cn(C4CC4)nn3)c3csc4cnccc34)cc12 [Example 856, (S)-6-(((1-cyclopropyl-1H-1,2,3-triazol-4-yl)(thieno[2,3-c]pyridin-3-yl)methyl)amino)-4-(neopentylamino)quinoline-3,8-dicarbonitrile] |  |  | IC50 [1, 7]: 1 nM; EC50 [2, 8]: 29 nM
COc1c([C@@H](Nc2cc(Cl)c3ncc(C#N)c(NCC(C)(C)C)c3c2)c2ccc(F)nc2C)nnn1C1CC1 [Example 967, (S)-8-chloro-6-(((1-cyclopropyl-5-methoxy-1H-1,2,3-triazol-4-yl)(6-fluoro-2-methylpyridin-3-yl)methyl)amino)-4-(neopentylamino)quinoline-3-carbonitrile] |  |  | IC50 [1, 7]: 2 nM; EC50 [2, 8]: 94 nM
CC(C)(C)CNc1c(C#N)cnc2c(C#N)cc(N[C@H](c3cn(C4(C#N)CC4)nn3)c3cccc4ncsc34)cc12 [Example 67, (S)-6-((benzo[d]thiazol-7-yl(1-(1-cyanocyclopropyl)-1H-1,2,3-triazol-4-yl)methyl)amino)-4-(neopentylamino)quinoline-3,8-dicarbonitrile] | 1 nM | 32 nM | 
Cc1nc(F)ccc1[C@H](Nc1cc(C#N)c2ncc(C#N)c(NCC(C)(C)C)c2c1)c1cn(C2(C(N)=O)CCC2)nn1 [Example 494, (S)-1-(4-(((3,8-dicyano-4-(neopentyl-amino)quinolin-6-yl)amino)(6-fluoro-2-methylpyridin-3-yl)methyl)-1H-1,2,3-triazol-1-yl)cyclobutane-1-carboxamide] | 1 nM | 444 nM | 
CC[C@@H](Nc1c(C#N)cnc2c(Cl)cc(N[C@@H](c3cccnc3)c3cn(C4CC4)nn3)cc12)c1ccccc1 [Example 191, 8-chloro-6-(((S)-(1-cyclopropyl-1H-1,2,3-triazol-4-yl)(pyridin-3-yl)methyl)amino)-4-(((R)-1-phenylpropyl)amino)quinoline-3-carbonitrile] | 2 nM | 104 nM | 
[2H]C(Nc1cc(Cl)c2ncc(C#N)c(N[C@H](CCC#N)c3ccccc3)c2c1)(c1cn(C2(C(F)(F)F)CC2)nn1)c1ccc(F)nc1C (stereo partly drawn) [Example 413, 8-chloro-4-(((R)-3-cyano-1-phenyl-propyl)amino)-6-(((6-fluoro-2-methyl-pyridin-3-yl)(1-(1-(trifluoromethyl)-cyclopropyl)-1H-1,2,3-triazol-4-yl)methyl-d)amino)quinoline-3-carbonitrile] | 4 nM | 44 nM | 
CC(C)(C)CNc1c(C#N)cnc2c(C#N)cc(N[C@H](c3cn(C4(C(F)F)CC4)nn3)c3cccc4c(=O)n(CC(F)F)ccc34)cc12 [Example 870, (S)-6-(((2-(2,2-difluoroethyl)-1-oxo-1,2-dihydroisoquinolin-5-yl)(1-(1-(difluoromethyl)cyclopropyl)-1H-1,2,3-triazol-4-yl)methyl)amino)-4-(neopentylamino)quinoline-3,8-dicarbonitrile] |  |  | IC50 [1, 7]: 2 nM; EC50 [2, 8]: 169 nM
Cc1ccc([C@H](Nc2cc(C#N)c3ncc(C#N)c(NCC(C)(C)C)c3c2)c2cn(C3(C(F)(F)F)CC3)nn2)c(C)n1 [Example 689, (S)-6-(((2,6-dimethylpyridin-3-yl)(1-(1′-(trifluoromethyl)cyclopropyl)-1H-1,2,3-triazol-4-yl)methyl)amino)-4-(neopentylamino)quinoline-3,8-dicarbonitrile] |  |  | IC50 ([1]; read-out: IC50 HTRF, Cot HTRF (TR-FRET) biochemical assay): 9 nM; EC50 ([2]; read-out: EC50 TNF, LPS-stimulated human monocytes, TNFα): 81 nM
CC(C)(C)N1CCC(n2cc([C@@H](Nc3cc(Cl)c4ncc(C#N)c(Nc5ccc(F)c(Cl)c5)c4c3)c3ccc4sccc4c3)nn2)CC1 [Example 64, (S)-6-((benzo[b]thiophen-5-yl(1-(1-(tert-butyl)piperidin-4-yl)-1H-1,2,3-triazol-4-yl)methyl)amino)-8-chloro-4-((3-chloro-4-fluorophenyl)amino)quinoline-3-carbonitrile] | 42 nM | 2650 nM | 
Cc1nc(F)ccc1[C@H](Nc1cc(C#N)c2ncc(C#N)c(NCC(C)(C)C(F)(F)F)c2c1)c1cn(C2(C(F)F)CC2)nn1 [Example 832, (S)-6-(((1-(l-(difluoromethyl)-cyclopropyl)-1H-1,2,3-triazol-4-yl)(6-fluoro-2-methylpyridin-3-yl)methyl)amino)-4-((3,3,3-trifluoro-2,2-dimethylpropyl)amino)quinoline-3,8-dicarbonitrile] |  |  | IC50 [1, 5]: 2 nM; EC50 [2, 6]: 44 nM
COc1nccc2c([C@H](Nc3cc(Cl)c4ncc(C#N)c(NCC(C)(C)C)c4c3)c3cn(C4(C(F)F)CC4)nn3)cccc12 [Example 914, (S)-8-chloro-6-(((1-(1-(difluoromethyl)cyclo-propyl)-1H-1,2,3-triazol-4-yl)(1-methoxylsoquinolin-5-yl)methyl)amino)-4-(neopentylamino)quinoline-3-carbonitrile] |  |  | IC50 [1, 5]: 9 nM; EC50 [2, 6]: 116 nM

Second part, led by results:

IC50 [1, 3] | EC50 [2, 4] | Structure (SMILES) | further results
3 nM | 26 nM | Cn1ccc2c([C@H](Nc3cc(Cl)c4ncc(C#N)c(NCC(C)(C)C)c4c3)c3cn(C4(C5CC5)CC4)nn3)cccc2c1=O [Example 779, (S)-6-(((1-([1,1′-bi(cyclopropan)]-1-yl)-1H-1,2,3-triazol-4-yl)(2-methyl-1-oxo-1,2-dihydroisoquinolin-5-yl)methyl)amino)-8-chloro-4-(neopentylamino)quinoline-3-carbonitrile] | 
2 nM | 45 nM | CC(C)(C)CNc1c(C#N)cnc2c(Cl)cc(N[C@H](c3cn(C4CC4)nn3)c3cccc4ncsc34)cc12 [Example 418, (S)-6-((benzo[d]thiazol-7-yl(1-cyclopropyl-1H-1,2,3-triazol-4-yl)methyl)amino)-8-chloro-4-(neopentylamino)quinoline-3-carbonitrile] | 
3 nM | 49 nM | CC(C)(C)CNc1c(C#N)cnc2c(Cl)cc(N[C@H](c3cn(C4CCN(C(C)(C)C)CC4)nn3)c3cccc4ncsc34)cc12 [Example 419, (S)-6-((benzo[d]thiazol-7-yl(1-(1-(tert-butyl)piperidin-4-yl)-1H-1,2,3-triazol-4-yl)methyl)amino)-8-chloro-4-(neopentylamino)quinoline-3-carbonitrile] | 
2 nM | 95 nM | Cn1cc2c([C@H](Nc3cc(Cl)c4ncc(C#N)c(NCC(C)(C)C)c4c3)c3cn(C4CC4)nn3)cccc2n1 [Example 426, (S)-8-chloro-6-(((1-cyclopropyl-1H-1,2,3-triazol-4-yl)(2-methyl-2H-indazol-4-yl)methyl)amino)-4-(neopentylamino)-quinoline-3-carbonitrile] | 
2 nM | 50 nM | Cn1ncc2c([C@H](Nc3cc(C#N)c4ncc(C#N)c(NCC(C)(C)C)c4c3)c3cn(C4(C)CC4)nn3)cccc21 [Example 529, (S)-6-(((1-methyl-1H-indazol-4-yl)(1-(1-methylcyclopropyl)-1H-1,2,3-triazol-4-yl)methyl)amino)-4-(neopentylamino)-quinoline-3,8-dicarbonitrile] | 
